The record followed here is PubChem BioAssay AID504457 (Sanford-Burnham Center for Chemical Genomics, 2011).

Calls of active or inactive are those of the source.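 The calls were made as follows: active = compounds with IC50 below 20 µM; inactive = the rest.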 Where only a bound is given, the exact number is not on record here.

One may read the IC50 as the concentration that inhibits the measured activity by half.

For the assay, the target named is Type-1 angiotensin II receptor (Homo sapiens) (UniProt P30556). Nature of the assay: AT1 receptor antagonists, angiotensin II-stimulated, SAR follow-up, selectivity assay for APJ receptor antagonist project, cell-based, CHO-K1 AGTR1, beta-arrestin, luminescence, set 5 (AID 504457). As to conditions: CHO-K1 AGTR1 PathHunter beta-arrestin.
Sequence of Type-1 angiotensin II receptor (Homo sapiens) (P30556 whole entry, looked up): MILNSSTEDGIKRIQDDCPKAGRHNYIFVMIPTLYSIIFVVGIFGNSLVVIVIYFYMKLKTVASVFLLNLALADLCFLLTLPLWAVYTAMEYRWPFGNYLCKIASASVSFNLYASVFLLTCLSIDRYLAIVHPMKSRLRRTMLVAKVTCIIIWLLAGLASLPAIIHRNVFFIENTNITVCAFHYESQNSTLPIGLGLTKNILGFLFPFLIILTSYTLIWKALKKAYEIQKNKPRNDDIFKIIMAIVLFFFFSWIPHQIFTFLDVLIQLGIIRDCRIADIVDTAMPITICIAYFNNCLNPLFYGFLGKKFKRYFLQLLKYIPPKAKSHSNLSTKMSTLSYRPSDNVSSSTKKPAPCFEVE
With `Cc1ccnc(SCc2cc(=O)c(OC(=O)c3ccc(C#N)cc3)co2)n1`, the IC50 is > 79 µM (inactive). As for `CC(=O)Oc1cc2c(cc1Cl)C(c1ccccc1Cl)CC1(CC(C)(C)NC(=S)N1)O2` (centres undefined), the figure is > 79 µM (inactive). For the molecule `CC1(C)CC2(CC(c3ccc(F)cc3)c3ccc(O)cc3O2)NC(=S)N1` (centres undefined), the IC50 result was “inactive”.

Turning to `Cc1ccnc(SCc2cc(=O)c(OC(=O)c3ccccc3)co2)n1`, the IC50 is > 79 µM (inactive).

`O=c1cc(CSc2ncccn2)occ1O`: the IC50 was > 79 µM (inactive). Turning to `Cc1ccc(C(=O)Oc2coc(CSc3ncccn3)cc2=O)cc1[N+](=O)[O-]`, the IC50 was > 79 µM (inactive). As for `C=CCOc1ccc(CSc2nccc(C)n2)cc1`, the figure is > 79 µM (inactive). As for `COc1ccc(C2CC3(CC(C)(C)NC(=S)N3)Oc3cc(OC(C)=O)cc(C)c32)cc1` (centres undefined), the figure is > 79 µM (inactive); as for `Cc1cc(C)nc(SCc2cc(=O)c(O)co2)n1`, > 79 µM (inactive); as for `Cc1cc(C)nc(SCc2cc(=O)c(OC(=O)c3cc([N+](=O)[O-])ccc3Cl)co2)n1`, “inactive”.

`C=CCOc1ccc(CSc2nc(C)cc(C)n2)cc1OC`: the IC50 was > 79 µM (inactive). The same measure for `COc1cc(CSc2nc(C)cc(C)n2)ccc1O`: > 79 µM (inactive); for `C=CCOc1ccc(COc2ccccc2)cc1`: > 79 µM (inactive).

For `O=C(Oc1coc(CSc2ncccn2)cc1=O)c1ccc(Br)cc1`, the IC50 was > 79 µM (inactive).

Take `COc1ccccc1NC(=O)CN1C(=O)C(=O)c2ccccc21`: the IC50 is > 79 µM (inactive). Turning to `Cc1ccccc1C1CC2(CC(C)(C)NC(=S)N2)Oc2cc(O)c(Cl)cc21` (centres undefined), the IC50 entry was “inactive”. For the molecule `N#Cc1ccc(C(=O)Oc2coc(CSc3ncccn3)cc2=O)cc1`, the IC50 was > 79 µM (inactive). As for `Cc1ccnc(SCc2cc(=O)c(OC(=O)c3ccc([N+](=O)[O-])cc3)co2)n1`, the figure is > 79 µM (inactive); as for `COc1ccc(C2CC3(CC(C)(C)NC(=S)N3)Oc3cc(O)cc(C)c32)cc1` (centres undefined), > 79 µM (inactive).
